Test results from ChEMBL document CHEMBL1201862, “PubChem BioAssay data set” (2004).
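In this assay, cells in 96-well plates receive the compound at five concentrations for 48 hours. Endpoints are linearly interpolated between the surrounding concentrations. At the GI50, growth is halved.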 The source made the active and inactive calls. Cut-off read from the data, not from the text of the source: active = GI50 up to about 1.1 µM and inactive = higher. *1 amine or outer side, *2 acyl side, *3 side chain or, on linkers, in order; H or OH if unused. Where a SMILES comes first, the peptide text is derived from it. Bridges are numbered along the chain shown (N, C = ends). [ ]: non-standard residue; d: D form. ξ: configuration not given here. X10 = CCC(C)C(N[*:1])C(O)CC(=O)O[C@H](C(=O)C(C)C(=O)[*:2])C(C)C; NMeY = CN[C@@H](Cc1ccc(O)cc1)C(=O)O; ξNMeL = CNC(CC(C)C)C(=O)O; ξT = CC(O)C(N)C(=O)O

Experiments:
Assay in all cases: growth of human tumour cells (NCI), 48 h
SW-620 = system: SW-620
EKVX = system: EKVX
SK-MEL-5 = system: SK-MEL-5
ACHN = system: ACHN
SNB-75 = system: SNB-75
IGROV-1 = system: IGROV-1
SF-295 = system: SF-295
KM12 = system: KM12
SF-539 = system: SF-539
CCRF-CEM = system: CCRF-CEM
UACC-62 = system: UACC-62
DU-145 = system: DU-145
OVCAR-5 = system: OVCAR-5
HT-29 = system: HT-29
T47D = system: T47D
NCI-H23 = system: NCI-H23
Hs-578T = system: Hs-578T
MCF7 = system: MCF7
LOX IMVI = system: LOX IMVI
SF-268 = system: SF-268

Row | SMILES | GI50 (SW-620) | GI50 (EKVX) | GI50 (SK-MEL-5) | GI50 (ACHN) | GI50 (SNB-75) | GI50 (IGROV-1) | GI50 (SF-295) | GI50 (KM12) | GI50 (SF-539) | GI50 (CCRF-CEM) | GI50 (UACC-62) | GI50 (DU-145) | GI50 (OVCAR-5) | GI50 (HT-29) | GI50 (T47D) | GI50 (NCI-H23) | GI50 (Hs-578T) | GI50 (MCF7) | GI50 (LOX IMVI) | GI50 (SF-268)
1 | COc1ccc(/C=C2\CCC(CNc3ccc(S(N)(=O)=O)cc3)C2=O)cc1 (configuration not stated) | 1.95 µM (inactive) | 27.6 µM (inactive) | 16.3 µM (inactive) | 23.1 µM (inactive) | 32.1 µM (inactive) | 20 µM (inactive) | > 67.3 µM (inactive) | 11.3 µM (inactive) | 25.7 µM (inactive) | 2.29 µM (inactive) | 24.5 µM (inactive) | > 53.8 µM (inactive) | 21.6 µM (inactive) | 10.2 µM (inactive) | 17 µM (inactive) | 19.7 µM (inactive) | 43 µM (inactive) | 1.74 µM (inactive) | 9.89 µM (inactive) | 22.5 µM (inactive)
2 | O=C(CCC(=O)c1ccc(Cl)cc1)NO | > 100 µM (inactive) | > 100 µM (inactive) | > 100 µM (inactive) | > 100 µM (inactive) | > 100 µM (inactive) | > 100 µM (inactive) | > 100 µM (inactive) | > 100 µM (inactive) | > 100 µM (inactive) | > 100 µM (inactive) | > 100 µM (inactive) | > 100 µM (inactive) | > 100 µM (inactive) | > 100 µM (inactive) | > 100 µM (inactive) | > 100 µM (inactive) | > 100 µM (inactive) | > 100 µM (inactive) | > 100 µM (inactive) | > 100 µM (inactive)
3 | COc1cc2c(/C=C3/C(=O)Nc4ccccc43)c(Cl)[nH]c2cc1C | 0.0855 µM (active) | 0.0521 µM (active) | 0.0467 µM (active) | 0.0923 µM (active) | 0.192 µM (active) | 0.034 µM (active) | 0.0252 µM (active) | 0.0329 µM (active) | 0.0234 µM (active) | 0.0583 µM (active) | 0.0371 µM (active) | 0.0955 µM (active) | 0.129 µM (active) | 0.0495 µM (active) | 13.7 µM (inactive) | 0.0407 µM (active) | 0.0427 µM (active) | 0.0502 µM (active) | 0.0631 µM (active) | 0.0644 µM (active)
4 | CCSSCS(C)(=O)=O | 5.05 µM (inactive) | 55.1 µM (inactive) | 32.7 µM (inactive) | 30.5 µM (inactive) | 23.3 µM (inactive) | – | 59.3 µM (inactive) | 61.7 µM (inactive) | 8.81 µM (inactive) | 3.9 µM (inactive) | 60.5 µM (inactive) | 19.1 µM (inactive) | 53.1 µM (inactive) | 30.4 µM (inactive) | 35.2 µM (inactive) | 32.9 µM (inactive) | 43.5 µM (inactive) | 22.5 µM (inactive) | 34.8 µM (inactive) | 44.5 µM (inactive)
5 | Cc1cc(=O)oc2c(C)c3oc(CBr)c(Br)c3cc12 | 16.9 µM (inactive) | 92.3 µM (inactive) | 18.2 µM (inactive) | 35.6 µM (inactive) | 22.5 µM (inactive) | 17.7 µM (inactive) | 17.2 µM (inactive) | 26.8 µM (inactive) | 37.6 µM (inactive) | 10.4 µM (inactive) | 17.5 µM (inactive) | 42.9 µM (inactive) | 27.4 µM (inactive) | 39.2 µM (inactive) | 24.2 µM (inactive) | 39 µM (inactive) | 44.1 µM (inactive) | 33.1 µM (inactive) | 12.6 µM (inactive) | 25.6 µM (inactive)
6 | COc1cccc(C(=O)N[C@@H]2[C@H](O)[C@@H](CO)O[C@H]2n2cnc3c(N)ncnc32)c1 | > 100 µM (inactive) | > 100 µM (inactive) | > 100 µM (inactive) | > 100 µM (inactive) | > 100 µM (inactive) | > 100 µM (inactive) | > 100 µM (inactive) | > 100 µM (inactive) | > 100 µM (inactive) | > 100 µM (inactive) | > 100 µM (inactive) | > 100 µM (inactive) | > 100 µM (inactive) | > 100 µM (inactive) | > 100 µM (inactive) | > 100 µM (inactive) | > 100 µM (inactive) | > 100 µM (inactive) | > 100 µM (inactive) | > 100 µM (inactive)
7 | CCOC(=O)c1c2c(n(-c3ccc(C)cc3)c1C)-c1ccccc1C(=O)C2(C(=O)OCC)C(=O)OCC | 37.1 µM (inactive) | 32.4 µM (inactive) | 19.2 µM (inactive) | 44.3 µM (inactive) | 28.6 µM (inactive) | 30.3 µM (inactive) | 37.9 µM (inactive) | 38.5 µM (inactive) | 35.8 µM (inactive) | 29 µM (inactive) | 27.3 µM (inactive) | 30.4 µM (inactive) | 74 µM (inactive) | 27.3 µM (inactive) | 20.7 µM (inactive) | 57.5 µM (inactive) | 25.3 µM (inactive) | 25.9 µM (inactive) | 33.8 µM (inactive) | 34.3 µM (inactive)
8 | CCC(C)C1NC(=O)C(NC(=O)C(CC(C)C)N(C)C(=O)[C@@H]2CCCN2)C(C)OC(=O)[C@H](Cc2ccc(OC)cc2)N(C)C(=O)[C@@H]2CCCN2C(=O)[C@H](CC(C)C)NC(=O)C(C)C(=O)[C@H](C(C)C)OC(=O)CC1O (some centres not stated) (H-P[ξNMeL][ξT][X10]LP[NMeY](Me); ester 3-C) | 0.000555 µM (active) | < 0.01 µM (active) | < 0.0001 µM (active) | 0.00234 µM (active) | 0.000682 µM (active) | 0.000288 µM (active) | 0.00144 µM (active) | < 0.01 µM (active) | 0.000322 µM (active) | 0.000493 µM (active) | < 0.0001 µM (active) | 0.00227 µM (active) | < 0.01 µM (active) | 0.000195 µM (active) | 0.000185 µM (active) | 0.000258 µM (active) | < 0.01 µM (active) | < 0.0001 µM (active) | < 0.0001 µM (active) | 0.000267 µM (active)
9 | Cc1ccc(O)c(-c2cc(-c3cccc(Br)c3)on2)c1 | 19.8 µM (inactive) | 34.4 µM (inactive) | 18.1 µM (inactive) | 35.6 µM (inactive) | 12.2 µM (inactive) | 14.5 µM (inactive) | 32.4 µM (inactive) | 20.3 µM (inactive) | 28.8 µM (inactive) | 26.9 µM (inactive) | 28.6 µM (inactive) | 33.6 µM (inactive) | 35.8 µM (inactive) | 25.5 µM (inactive) | 28.2 µM (inactive) | 37.1 µM (inactive) | 44.6 µM (inactive) | 13.2 µM (inactive) | 16.3 µM (inactive) | 24.2 µM (inactive)
10 | Cc1ccsc1C(=S)Nc1ccc(Cl)c(/C=N/OC(C)C)c1 | 34.3 µM (inactive) | 22.9 µM (inactive) | 25.2 µM (inactive) | 25.2 µM (inactive) | 48.2 µM (inactive) | 25.8 µM (inactive) | 30.1 µM (inactive) | 26.4 µM (inactive) | > 100 µM (inactive) | 38.1 µM (inactive) | 64.1 µM (inactive) | 92.5 µM (inactive) | > 100 µM (inactive) | 27.5 µM (inactive) | 17.8 µM (inactive) | 20.1 µM (inactive) | 45.8 µM (inactive) | 15.6 µM (inactive) | 29.8 µM (inactive) | 86.3 µM (inactive)
11 | Clc1ccc(Cl)c(Nc2ccnc(SCc3ccccc3)n2)c1 | > 100 µM (inactive) | 57.9 µM (inactive) | > 100 µM (inactive) | > 100 µM (inactive) | > 100 µM (inactive) | > 100 µM (inactive) | > 100 µM (inactive) | > 100 µM (inactive) | > 100 µM (inactive) | > 100 µM (inactive) | > 100 µM (inactive) | > 100 µM (inactive) | > 100 µM (inactive) | 69.8 µM (inactive) | 32.4 µM (inactive) | > 100 µM (inactive) | > 100 µM (inactive) | > 100 µM (inactive) | 46.6 µM (inactive) | > 100 µM (inactive)
12 | CC1=NN(C(=O)CC(=O)Nc2ccccc2C)C(=O)C1/N=N/c1ccc(C(=O)O)cc1 (configuration not stated) | > 100 µM (inactive) | > 100 µM (inactive) | > 100 µM (inactive) | > 100 µM (inactive) | 70.5 µM (inactive) | > 100 µM (inactive) | > 100 µM (inactive) | > 100 µM (inactive) | > 100 µM (inactive) | 86.9 µM (inactive) | > 100 µM (inactive) | > 100 µM (inactive) | > 100 µM (inactive) | > 100 µM (inactive) | 44.1 µM (inactive) | > 100 µM (inactive) | 68.9 µM (inactive) | > 100 µM (inactive) | 79.3 µM (inactive) | > 100 µM (inactive)
13 | COc1ccc(OC)c2sc(N3C(=O)/C(=C/c4ccccc4S)N=C3c3ccccc3)nc12 | 39.2 µM (inactive) | 32.1 µM (inactive) | 18.4 µM (inactive) | 34.8 µM (inactive) | 16.5 µM (inactive) | 90.4 µM (inactive) | 52.4 µM (inactive) | 41 µM (inactive) | 28.6 µM (inactive) | 22.3 µM (inactive) | 21.5 µM (inactive) | 49.4 µM (inactive) | > 100 µM (inactive) | 38.9 µM (inactive) | 24.2 µM (inactive) | – | 49.7 µM (inactive) | 18.7 µM (inactive) | 24.9 µM (inactive) | 59.7 µM (inactive)
14 | O=c1oc2c(Br)c(O)c(Br)cc2c2ccccc12 | 36.6 µM (inactive) | 23.2 µM (inactive) | 24.5 µM (inactive) | 30.8 µM (inactive) | 32 µM (inactive) | 30.6 µM (inactive) | 34 µM (inactive) | – | 23.9 µM (inactive) | 25.6 µM (inactive) | 20.1 µM (inactive) | 29.3 µM (inactive) | 35 µM (inactive) | 30 µM (inactive) | 25 µM (inactive) | 15.6 µM (inactive) | 20.7 µM (inactive) | 16.3 µM (inactive) | 23.8 µM (inactive) | 20.8 µM (inactive)
